Assay results published in US12150940B2, “WASp-protecting small molecules, compositions, methods and uses thereof in the treatment of innate and acquired immune-related disorders or conditions” (BAR ILAN UNIVERSITY, priority 2016, dated 2024).

Key:
[1] = target: T1, WASp (Homo sapiens, UniProt P42768); experiment: WASp ubiquitylation in PBMCs (immunoprecipitation, anti-ubiquitin blot); format: cell-based; conditions: vs activated negative control cells
T1 construct: endogenous in cells; host or cells: primary human platelets from healthy donors
T1 sequence (P42768 1-502): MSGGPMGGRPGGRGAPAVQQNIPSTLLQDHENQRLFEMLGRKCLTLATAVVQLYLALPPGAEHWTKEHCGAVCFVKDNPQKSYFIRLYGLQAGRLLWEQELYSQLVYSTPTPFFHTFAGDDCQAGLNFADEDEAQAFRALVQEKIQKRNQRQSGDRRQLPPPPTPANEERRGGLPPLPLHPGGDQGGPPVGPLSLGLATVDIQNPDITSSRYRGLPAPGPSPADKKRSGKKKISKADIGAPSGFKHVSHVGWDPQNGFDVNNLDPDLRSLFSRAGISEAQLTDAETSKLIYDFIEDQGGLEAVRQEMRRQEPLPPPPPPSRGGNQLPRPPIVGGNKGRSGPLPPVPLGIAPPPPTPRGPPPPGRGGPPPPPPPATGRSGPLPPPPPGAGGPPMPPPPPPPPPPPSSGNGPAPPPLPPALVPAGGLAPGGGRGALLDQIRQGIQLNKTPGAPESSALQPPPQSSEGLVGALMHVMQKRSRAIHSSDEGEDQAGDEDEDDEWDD
Description: FIGS. 12C and 12D. show freshly-isolated PBMCs that were either co-stimulated (+) with anti-CD3 and anti-CD28 or unstimulated (−). The PBMCs were pre-incubated at 37° C. for 15 min with either DMSO or the indicated WASp-binding SMCs (FIG. 12C—SMC #6; FIG. 12D—SMC #33), followed by lysis. WASp ubiquitylation was determined by immunoprecipitation as in FIG. 12A-12B. Ubiquitylated WASp appears as a smear of bands above the MW of 65 kDa with a prominent band at […]. Blots are representative of three independent experiments.
Immunoprecipitations and western blotting analysis were performed as previously described (Reicher et al, 2012). Briefly, platelets (2×10^8 cells per sample) were lysed by the addition of an equal volume of 2× lysis buffer (30 mM HEPES pH7.4, 300 mM NaCl, 2 mM phenylmethyl sulfonyl fluoride (PMSF), 2 mM sodium orthovanadate, 2% Triton X-100 and complete protease inhibitor tablets (Roche)). MEG-01 cells (2×10^7 cells per sample) were lysed in 1.25× lysis buffer. Proteasome activity was blocked by addition of MG132 (AdooQ) to platelets and Meg-01 cell medium at final concentration of 10 μM, for 1 h before the cells were harvested. Densitometric analysis of band intensities was performed with ImageJ software, with final results normalized with WASp or GAPDH as loading controls for immunoprecipitated samples and whole-cell lysates, respectively. […]

[2] = target: T2, N-WASp (Homo sapiens, UniProt O00401); experiment: MST binding, YFP-N-WASp in HEK 293T cell lysate
T2 construct: expressed in transfected cells; host or cells: HEK 293T, transient transfection; unpurified cell lysate
T2 sequence (O00401 whole entry, species assumed): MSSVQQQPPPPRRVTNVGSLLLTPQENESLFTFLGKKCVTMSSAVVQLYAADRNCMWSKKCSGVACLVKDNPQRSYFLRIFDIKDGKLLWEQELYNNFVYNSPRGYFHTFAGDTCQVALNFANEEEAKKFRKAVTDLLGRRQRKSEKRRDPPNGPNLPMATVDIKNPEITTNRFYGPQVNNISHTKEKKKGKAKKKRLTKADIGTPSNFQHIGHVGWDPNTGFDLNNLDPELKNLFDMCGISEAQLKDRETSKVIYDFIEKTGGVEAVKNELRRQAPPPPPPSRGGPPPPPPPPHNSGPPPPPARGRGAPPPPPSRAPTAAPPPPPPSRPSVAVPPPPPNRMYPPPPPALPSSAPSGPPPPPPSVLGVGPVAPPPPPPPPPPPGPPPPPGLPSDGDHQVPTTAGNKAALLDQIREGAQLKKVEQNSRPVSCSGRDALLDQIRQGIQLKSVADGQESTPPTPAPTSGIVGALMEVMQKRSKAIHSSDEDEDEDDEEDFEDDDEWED
Description: Diluted cell lysates of YFP-WASp/N-WASp/WAVE2-expressing HEK 293T cells were incubated with serially-diluted (100 μM-3 nM) SMCs. The mixed lysates and SMCs were then loaded into standard-treated Monolith™ capillaries and the fluorescence of the samples was measured by the Monolith NT.115 instrument at 60% MST power. Binding curves of WASp with SMC #6 (FIG. 3A), SMC #30 (FIG. 3B), SMC #33 (FIG. 3C), SMC #34 (FIG. 3D) and Y-27632 (FIG. 3E) or of N-WASp (FIG. 3F) or WAVE2 (FIG. 3G) with SMC #34 were generated by the NanoTemper Analysis 2.231 software. Normalized fluorescence (hot fluorescence/initial fluorescence) is plotted as a function of SMC concentration. […]
YFP-tagged WASp was obtained from cell lysates of Human Embryonic Kidney (HEK) 293T, transiently transfected with YFP-WASp/WAVE2/N-WASp by DNA-calcium phosphate co-precipitation as previously described (Reicher et al, 2012). […] After loading into the instrument (Monolith NT.115, NanoTemper), the samples were measured by standard protocols at 60% MST power. […] KD values were determined using the NanoTemper analysis software (NT Analysis 1.5.37 or 2.2.31).
Following this in silico screening, the inventors identified eight SMCs (#6, #23, #24, #25, #30, #32, #33, #34, see Table 1). […] The SMCs that specifically bind the degradation pocket of WASp were further evaluated by the inventors.

Row | Structure (SMILES) | ubiquitylation of WASp in active lymphocytes [1] | binding to N-WASp [2]
1 | Cc1ccccc1N(CC(=O)NCc1ccccc1)C(=O)CCC(=O)Nc1nccs1 [SMC #33, N′-[2-(benzylamino)-2-oxoethyl]-N′-(2-methylphenyl)-N-(1,3-thiazol-2-yl)butanediamide] | downregulated | –
2 | CC(=O)N[C@H]1C[C@@H](c2ccc3c(c2)nnn3C)O[C@@H](c2ccc(Cl)cc2)C1 [SMC #6, N-[(2R,4R,6S)-2-(4-chlorophenyl)-6-(1-methylbenzotriazol-5-yl)oxan-4-yl]acetamide] | downregulated | –
3 | CC1CCCC(C)N1C(=O)CSc1nnc(COc2cccc3cccnc23)o1 (stereo not drawn) [SMC #34, 1-(2,6-dimethylpiperidin-1-yl)-2-[[5-(quinolin-8-yloxymethyl)-1,3,4-oxadiazol-2-yl]sulfanyl]ethanone] | – | no binding
